Values of other authors as cited in article PMC3045272 (Acta Crystallographica Section D: Biological Crystallography, 2011).

System: Cn (calcineurin)
Design: method as in Landrieu et al., 2010
Conditions: modification of the fourth residue; ref Landrieu et al., 2010

For Debio 025, the “binding of the compound–CypA complex to Cn” value is listed as “prevents binding of the Debio 025–CypA complex to Cn”.
